# Data from ChEMBL document CHEMBL1641601, “Design, synthesis, and testing of an 6-O-linked series of benzimidazole based inhibitors of CDK5/p25” (Bioorg Med Chem, 2011).
# pIC50: −log10 of the molar value.
# Target: Cyclin-dependent kinase 5/CDK5 activator 1 (Homo sapiens, UniProt Q00535)
# Experiment: Inhibition of CDK5/P25 GST-fusion protein assessed as substrate histone H1 phosphorylation by scintillation counting
# Type: protein-complex assay
# Cyclin-dependent kinase 5/CDK5 activator 1, sequence (Q00535 whole entry, the tested form may be a part): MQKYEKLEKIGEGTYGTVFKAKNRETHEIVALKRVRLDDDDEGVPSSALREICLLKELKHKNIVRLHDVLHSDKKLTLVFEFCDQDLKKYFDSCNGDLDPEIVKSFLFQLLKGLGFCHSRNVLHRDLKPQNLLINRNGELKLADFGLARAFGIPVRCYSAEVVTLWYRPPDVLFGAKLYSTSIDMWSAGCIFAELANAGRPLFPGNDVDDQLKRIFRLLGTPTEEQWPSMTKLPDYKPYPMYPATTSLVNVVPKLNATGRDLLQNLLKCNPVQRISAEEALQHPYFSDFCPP
# Cyclin-dependent kinase 5/CDK5 activator 1, sequence (Q15078 whole entry, further chain, the tested form may be a part): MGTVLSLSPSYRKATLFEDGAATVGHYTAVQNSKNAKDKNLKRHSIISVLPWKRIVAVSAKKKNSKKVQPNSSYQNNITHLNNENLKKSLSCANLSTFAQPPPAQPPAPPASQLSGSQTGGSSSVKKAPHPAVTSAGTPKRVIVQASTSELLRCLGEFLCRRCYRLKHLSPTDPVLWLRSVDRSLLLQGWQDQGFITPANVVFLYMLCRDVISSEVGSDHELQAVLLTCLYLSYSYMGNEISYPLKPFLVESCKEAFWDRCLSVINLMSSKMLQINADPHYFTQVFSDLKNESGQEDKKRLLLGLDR
row,pIC50,SMILES
1,< 5.00,COc1cc(NCc2ccccc2)c2ncn(C(C)C)c2c1
2,< 4.00,CCC(CN(C)C)Oc1cc(NCc2ccccc2)c2ncn(C(C)C)c2c1 (configuration not stated)
3,< 4.00,CCC(O)COc1cc(NCc2ccccc2)c2ncn(C(C)C)c2c1 (configuration not stated)
4,< 4.00,CCOc1cc(NCc2ccccc2)c2ncn(C(C)C)c2c1
5,< 4.00,COCCOc1cc(NCc2ccccc2)c2ncn(C(C)C)c2c1
6,< 4.00,CC(C)n1cnc2c(NCc3ccccc3)cc(OCC3CCN(C)CC3)cc21
7,< 4.00,CC(C)n1cnc2c(NCc3ccccc3)cc(OCCO)cc21
8,< 5.00,CCC(COC)Oc1cc(NCc2ccccc2)c2ncn(C(C)C)c2c1 (configuration not stated)
9,4.89,CCC(CO)Oc1cc(NCc2ccccc2)c2ncn(C(C)C)c2c1 (configuration not stated)
10,< 4.00,CCCOc1cc(NCc2ccccc2)c2ncn(C(C)C)c2c1
11,< 4.00,CCCCOc1cc(NCc2ccccc2)c2ncn(C(C)C)c2c1
12,< 4.00,CC(C)n1cnc2c(NCc3ccccc3)cc(OCC3CCNCC3)cc21
